{"source": "patent US20220354098A1", "about": "“Genetically Modified Non-Human Animals and Methods of Use Thereof” (YALE UNIVERSITY, priority 2019, published 2022)", "key": {"[1]": {"molecular_target": "T1, scavenger receptor B1 (SR-B1) (Mus musculus, UniProt Q61009)", "T1 construct": "endogenous in cells", "T1 sequence (Q61009 1-509)": "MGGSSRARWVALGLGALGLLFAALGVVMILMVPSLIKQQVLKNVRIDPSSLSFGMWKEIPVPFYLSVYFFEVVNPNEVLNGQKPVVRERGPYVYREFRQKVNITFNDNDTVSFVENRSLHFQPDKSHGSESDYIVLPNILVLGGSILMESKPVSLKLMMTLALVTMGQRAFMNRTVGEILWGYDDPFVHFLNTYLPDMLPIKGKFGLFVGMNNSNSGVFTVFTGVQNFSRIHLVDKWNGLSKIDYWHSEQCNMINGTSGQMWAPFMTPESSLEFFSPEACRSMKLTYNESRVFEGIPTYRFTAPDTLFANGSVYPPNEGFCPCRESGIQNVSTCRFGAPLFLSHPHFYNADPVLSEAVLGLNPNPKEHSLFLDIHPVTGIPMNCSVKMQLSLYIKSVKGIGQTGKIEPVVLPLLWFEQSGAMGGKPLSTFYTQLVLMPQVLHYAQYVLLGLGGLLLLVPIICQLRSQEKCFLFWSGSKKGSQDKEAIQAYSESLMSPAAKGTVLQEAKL", "assay": "SR-B1 inhibitors in RGSKI mice: survival of transfused human RBCs in peripheral blood", "format": "in vivo", "details": "2 mg per mouse, one hour before human RBC infusion", "procedure": "(§1) Inhibitor of scavenger receptor B1 can protect human RBCs in the mouse system. RGSKI mice were treated with scavenger receptor B1 named BLT-1 (2 mg per mouse). One hour after treatment, mice were infused with human RBCs and peripheral blood was collected at indicated time points. Control: PBS.\nas §1, with “ITX7650 or ITX5061 (1” for “BLT-1 (2”, “mouse) obtained from iTherX.” for “mouse).”"}, "Fah-KO mouse hepatocytes": {"test_system": "Fah-KO mouse hepatocytes", "assay": "NTBC rescue of Fah-KO mouse hepatocytes", "format": "in vivo", "details": "NTBC in drinking water", "from_the_text": "MISTRGFah are viable, fertile, and can be bred as homozygotes when maintained on drinking water supplemented with 2-(2-nitro-4-trifluoromethylbenzoyl)-1,3-cyclohexanedione (NTBC), that blocks tyrosine metabolism upstream of FAH and prevents buildup of hepatotoxic metabolites. At 8 weeks of age, MISTRGFah. mice were implanted with commercially available, adult human hepatocytes (HuHep) via direct injection into the splenic vein, followed by gradual withdrawal of NTBC water. Regulated buildup of intracellular FA results in death of murine Fah^−/− hepatocytes and regeneration with HuHep with up to 90% repopulation by HuHep (Azuma H et al., 2007, Nature Biotechnology, 25:903-910). When plasma human albumin levels reached 2 mg/dL (FIG. 11A), indicative of significant (˜80%) HuHep repopulation, HuHepMISTRGFah mice were sublethally (80cGy) irradiated and each mouse was engrafted with […] fetal liver (FL) derived CD34+ cells. MISTRG (80cGy), MISTRGW41 and NSGW41 (no irrad) served as controls to assess the effects of human liver vs W41 mutation vs cytokine humanization on erythropoiesis and huRBC in circulation. 10 weeks post transplantation mice were analyzed for engraftment and. specifically erythroid maturation and PB huRBC."}, "C3 and C5 complement": {"test_system": "C3 and C5 complement", "details": "cited from earlier work"}}}
{"molecule": "CCCCCCC1CCCC1=NNC(N)=S", "note": "(centres unmarked) [BLT-1]", "values": [{"measurement": "Protection of transfused human red blood cells in mouse periphery", "setting": "[1]", "result": "protected"}]}
{"molecule": "O=C1CCCC(=O)C1C(=O)c1ccc(C(F)(F)F)cc1[N+](=O)[O-]", "note": "[NTBC, 2-(2-nitro-4-trifluoromethylbenzoyl)-1,3-cyclohexanedione]", "values": [{"measurement": "Rescue of Fah-KO mouse hepatocytes", "setting": "Fah-KO mouse hepatocytes", "result": "rescues the Fah-KO mouse hepatocytes from death"}]}
{"molecule": "cobra venom factor", "values": [{"measurement": "Maximum human RBC chimerism", "setting": "C3 and C5 complement; CVF with concurrent liposomal clodronate", "result": "~3", "unit": "%"}, {"measurement": "% of circulating huRBC", "setting": "C3 and C5 complement; only in conjunction with liposomal clodronate in NOD/SCID mice", "result": "increased the % of circulating huRBC"}, {"measurement": "huRBC survival", "setting": "C3 and C5 complement; only when MΦs are depleted concurrently with liposomal clodronate", "result": "significantly prolonged"}]}
